The values below come from patent publication US12649726B2, “Substituted tetrahydroisoquinoline derivative as a D1 positive allosteric modulator” (UCB Biopharma SRL, priority 2020, dated 2026).

Holding throughout (assay type): cell-based
In assay [1] the target is T1, dopamine D1 receptor (Homo sapiens, UniProt P21728).
T1 construct: host or cells: LMtk (Ltk−) mouse fibroblast cells
Kind of assay: cAMP HTRF activation assay (absence of dopamine). The note with it: 10 μM compound, LMtk (Ltk−) cells expressing D1, read-out: activation (compared to dopamine maximal response). The text has this: (§1) Assays have been designed to measure the effects of compounds in accordance with the present invention in the absence of dopamine (“activation assay”) and in the presence of dopamine (“potentiation assay”).
The activation assay measures the stimulation of the production of cyclic adenosinemonophosphate (cAMP) in the Homogeneous Time Resolved Fluorescent (HTRF) assay, with the maximum increase in cAMP by increasing concentrations of the endogenous agonist, dopamine, defined as 100% activation.
(§2) Cells were cultured at 37° C. in a humidified atmosphere of 5% CO2. […]
The measurement of changes in intracellular cyclic adenosinemonophopshpate (cAMP) was determined using the HTRF cAMP dynamic assay kit from CisBio (Codolet, France). Using homogenous time-resolved fluorescence technology, the assay is based on competition between native cAMP produced by cells and cAMP labelled with the dye d2. The tracer binding is determined by an anti-cAMP antibody labeled with cryptate. The effects of the compound alone (agonism) was determined by performing the assay in the absence of dopamine, whilst the effect of the compound as a positive allosteric modulator (PAM) was determined in the presence of an EC20 concentration of dopamine. […]
In general terms: Time-resolved FRET reads energy transfer from a long-lived donor to a nearby acceptor.

Assay [2] has as its target T1, dopamine D1 receptor. Nature of the assay: cAMP HTRF potentiation assay (presence of EC20 dopamine).
Excerpt: as §1
The potentiation assay measures the ability of compounds to increase the levels of cAMP produced by a low-threshold concentration of dopamine. The concentration of dopamine used ([EC20]) is designed to produce 20% stimulation compared to the maximal response (100%) seen with increasing the concentration of dopamine. To measure this potentiation increasing concentrations of the compound with the [EC20] of dopamine are incubated and the potentiation is measured as increases in cAMP production and concentration of compound which produces 50% of the potentiation of the cAMP levels is measured.
as §2
The measurement of changes in intracellular cyclic adenosinemonophopshpate (cAMP) was determined using the HTRF cAMP dynamic assay kit from CisBio (Codolet, France). Using homogenous time-resolved fluorescence technology, the assay is based on competition between native cAMP produced by cells and cAMP labelled with the dye d2. The tracer binding is determined by an anti-cAMP antibody labeled with cryptate. […]

Assay [3] concerns the target T2, human GABAA receptor α1,β2 and γ2 subunits (Homo sapiens, UniProt P14867+P18507+P47870).
T2 construct: expressed in transfected cells; host or cells: CHO-K1 cells
Nature of the assay: Automated patch clamp GABAA receptor inhibition assay (IonFlux HT). Particulars: 10 μM compound, 15 μM GABA, CHO-K1 cells, holding potential −60 mV; read-out: percentage of inhibition of the GABAA receptor. How it is done: CHO-K1 cells stably expressing human GABAA receptor α1,β2 and γ2 subunits were used. The cells were harvested using trypsin and maintained in serum-free medium at room temperature. The cells were washed and re-suspended in extracellular solution before testing.
Experiments on human GABAA (α1β2γ2) channels were conducted using an automated patch clamp assay (IonFlux™ HT). Compounds were tested at 3 concentrations (0.1, 1, and 10 μM) in 3 to 4 cells. The external solution for recording GABAA currents was composed of sodium chloride 137 mM, potassium chloride 4 mM, calcium chloride 1.8 mM, magnesium chloride 1 mM, HEPES 10 mM, and glucose 10 mM. Both external and internal solutions were titrated with NaOH or KOH to obtain a pH of 7.35 or 7.3, respectively. The internal pipette solution contained potassium fluoride 70 mM, potassium chloride 60 mM, sodium chloride 70 mM, HEPES 5 mM, EGTA 5 mM, and Magnesium ATP 4 mM. The final concentration of vehicle used to dilute compounds was 0.33% DMSO in each well. Bicuculline (0.032 to 100 μM) was used as positive control inhibitor. GABA (15 μM) was used as agonist. […]
The compound addition sequence was the following: one addition of the EC80 concentration of GABA was added to establish baseline response. […] Peak inward currents in response to the GABA additions in the presence of a single concentration of compound were measured. […]
On the technique in general: In patch-clamp work, channel activity is measured electrically.

Where “and” joins values, the source holds several entries; their conditions need not be identical. Equal values may be shown once.

T1 sequence (P21728 whole entry): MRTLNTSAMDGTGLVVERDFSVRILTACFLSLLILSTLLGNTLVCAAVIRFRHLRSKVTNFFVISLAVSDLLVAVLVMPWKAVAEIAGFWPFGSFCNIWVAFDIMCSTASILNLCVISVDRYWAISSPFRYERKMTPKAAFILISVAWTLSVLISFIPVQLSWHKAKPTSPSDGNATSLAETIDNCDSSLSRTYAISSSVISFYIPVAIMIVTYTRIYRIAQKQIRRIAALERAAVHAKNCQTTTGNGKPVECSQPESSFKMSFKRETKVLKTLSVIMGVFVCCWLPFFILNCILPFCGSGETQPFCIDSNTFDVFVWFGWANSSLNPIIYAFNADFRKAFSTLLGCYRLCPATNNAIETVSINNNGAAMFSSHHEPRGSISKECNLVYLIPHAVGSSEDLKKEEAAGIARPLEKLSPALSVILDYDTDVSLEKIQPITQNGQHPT
T2 sequence (P14867 28-456): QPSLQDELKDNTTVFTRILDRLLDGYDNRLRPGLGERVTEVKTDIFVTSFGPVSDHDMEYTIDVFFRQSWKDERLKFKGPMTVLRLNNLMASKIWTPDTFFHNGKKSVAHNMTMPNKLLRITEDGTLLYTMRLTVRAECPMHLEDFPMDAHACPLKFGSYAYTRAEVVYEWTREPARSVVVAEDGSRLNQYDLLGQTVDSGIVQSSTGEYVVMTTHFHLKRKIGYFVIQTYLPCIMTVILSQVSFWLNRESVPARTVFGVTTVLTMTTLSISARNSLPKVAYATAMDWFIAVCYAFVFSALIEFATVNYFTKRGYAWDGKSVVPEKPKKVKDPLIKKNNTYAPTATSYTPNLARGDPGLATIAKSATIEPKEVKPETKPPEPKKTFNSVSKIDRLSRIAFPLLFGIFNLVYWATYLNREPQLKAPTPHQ
T2 sequence (P47870 25-512 limits assumed): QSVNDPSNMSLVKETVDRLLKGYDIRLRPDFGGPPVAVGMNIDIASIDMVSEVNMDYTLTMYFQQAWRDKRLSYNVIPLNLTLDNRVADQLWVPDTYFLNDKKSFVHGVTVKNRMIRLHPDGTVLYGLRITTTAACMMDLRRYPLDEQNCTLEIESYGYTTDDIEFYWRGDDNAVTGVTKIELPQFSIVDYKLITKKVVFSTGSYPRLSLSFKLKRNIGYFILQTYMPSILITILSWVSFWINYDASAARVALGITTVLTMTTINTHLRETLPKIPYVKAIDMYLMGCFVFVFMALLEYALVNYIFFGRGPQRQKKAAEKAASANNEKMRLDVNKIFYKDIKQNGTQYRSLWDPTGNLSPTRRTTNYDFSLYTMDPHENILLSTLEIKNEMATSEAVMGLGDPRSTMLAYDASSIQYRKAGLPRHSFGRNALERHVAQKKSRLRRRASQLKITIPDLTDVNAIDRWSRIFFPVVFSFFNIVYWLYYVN
T2 sequence (P18507 40-475): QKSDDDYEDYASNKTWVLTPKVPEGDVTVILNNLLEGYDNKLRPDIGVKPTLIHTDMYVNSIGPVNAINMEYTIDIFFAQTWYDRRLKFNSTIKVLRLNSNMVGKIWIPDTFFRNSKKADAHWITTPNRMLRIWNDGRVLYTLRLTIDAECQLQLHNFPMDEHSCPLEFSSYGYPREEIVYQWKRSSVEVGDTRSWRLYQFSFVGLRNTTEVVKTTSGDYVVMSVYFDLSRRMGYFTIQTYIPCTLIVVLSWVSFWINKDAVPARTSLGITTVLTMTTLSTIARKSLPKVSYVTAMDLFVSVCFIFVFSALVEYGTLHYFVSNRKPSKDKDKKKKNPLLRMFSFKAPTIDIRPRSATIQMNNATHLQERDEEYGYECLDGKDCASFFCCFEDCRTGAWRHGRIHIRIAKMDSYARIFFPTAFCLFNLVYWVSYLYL

As usually defined, the EC50 is the concentration at which the effect is half-maximal. As a reminder, the inhibition is the relative decrease from the control value, in per cent. Consider `C[C@H]1c2cccc(C(C)(C)O)c2C[C@H](CO)N1C(=O)Cc1c(Cl)ccc2[nH]nc(Cl)c12` [compound of formula (I), 2-(3,5-dichloro-1H-indazol-4-yl)-1-[(1S,3R)-3-(hydroxymethyl)-5-(1-hydroxy-1-methyl-ethyl)-1-methyl-3,4-dihydro-1H-isoquinolin-2-yl]ethanone], for which the Emax at 10 µM in assay [1] was < 20%. In addition, in assay [2] (in presence of [EC20] dopamine (1.1 nM), dopamine maximum = 100%), the “Erel (relative efficacy, maximal % potentiation vs dopamine maximal response)” value was “about 62%”. For the same compound, the EC50 in assay [2] (potentiation of cAMP in presence of [EC20] dopamine (1.1 nM), LMtk (Ltk−) cells expressing D1) is ~6.31 nM and < 31.6 nM. Besides, the inhibition at 10 µM in assay [3] was < 0.1%.
